Measurements from publication PMC8219539 (Journal of Atherosclerosis and Thrombosis, 2020).

Target: S1P receptor 2 (S1P2/EDG-5) (Homo sapiens, UniProt O95136)
Assay: Fura2 intracellular Ca2+ assay
Format: cell-based

Chain of S1P receptor 2 (S1P2/EDG-5) (O95136 whole entry): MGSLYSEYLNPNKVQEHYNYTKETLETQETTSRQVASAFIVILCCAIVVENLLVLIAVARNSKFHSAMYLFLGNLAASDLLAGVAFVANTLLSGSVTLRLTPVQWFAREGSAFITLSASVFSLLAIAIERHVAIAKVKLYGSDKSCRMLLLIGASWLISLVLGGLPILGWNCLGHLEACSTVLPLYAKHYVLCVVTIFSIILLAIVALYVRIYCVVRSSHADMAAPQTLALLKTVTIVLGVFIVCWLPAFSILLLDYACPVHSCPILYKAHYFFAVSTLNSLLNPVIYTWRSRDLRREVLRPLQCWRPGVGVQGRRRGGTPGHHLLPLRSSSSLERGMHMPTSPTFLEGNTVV

Row | IC50 [nM] | Molecule
1 | 5.3 | Cc1nn(C)c2nc(NNC(=O)Nc3c(Cl)cncc3Cl)cc(C(C)C)c12 [JTE-013]
2 | 5.7 | ONO-5430514
